Assay results reported in patent publication US12083230B2, “Nano-encapsulation using GRAS materials and applications thereof” (priority 2015, dated 2024).

Experiments:
V. cholera cultures = assay: Growth of V. cholera cultures at 37° C.; assay type: cell-based; conditions: during the time tested
Procedure: FIG. 10(b) illustrates growth of V. cholera cultures at 37° C. in response to addition of CAI-1-loaded Zein/CAS/VitE-Ac nanoparticles according to some embodiments described herein.
Changes in size and PDI could only be observed for the three-fold protein per amount of drug formulation (FIG. 9a). […] All parts of the formulation were necessary for the formation of nanoparticles with defined size. […] FNP of CAI-1 alone yielded a polydisperse emulsion, which then agglomerated and settled out over time.

V. cholerae WN1102 = assay: Bioluminescence response of V. cholerae WN1102 (in vitro bioactivity assay); assay type: cell-based; conditions: suggested by bioactivity of the flow through
Source text: FIG. 10(a) illustrates bioluminescence response of V. cholerae WN1102 supplemented with varying amounts of CAI-1-loaded Zein/CAS/VitE-Ac composite nanoparticles in PBS according to some embodiments described herein.
The bioactivity of blank Zein/CAS/VitEA particles was not detectable (FIG. 10b). […] The flow-through after centrifugal filtration can be regarded as a correlate for encapsulation efficiency of CAI-1. Bioactivity of the flow through was observed only at very high concentrations, approximately 1,000-10,000-fold higher than CAI-1 NPs.

[1] = cited from earlier work; for Log D: pH 7.4
[2] = Nile Red encapsulation efficiency by UV-Vis of flow through after centrifugal filtration; assay type: physicochemical; conditions: in Zn/CAS-VitE-Ac NPs, all stable formulations (0.2%-5 wt.%)
Source text: The utility of an encapsulation method depends on its encapsulation capacity and efficiency for various compounds. […] Nile Red was encapsulated at 0.2%-5 wt. %. At 0.1% wt. […] Encapsulation efficiency of Nile Red in Zn/CAS-VitE-Ac NPs was >98% for all stable formulations as determined by UV-Vis measurement of the flow through after centrifugal filtration (FIG. 7). With increasing Nile Red concentration in the core, the mean nanoparticle diameter increases (FIG. 6b). The florescence intensity is expected to increase with higher dye loading per particle. This can be seen in FIGS. 6(c) and 6(d) for two different wavelengths (500 nm excitation, 690 nm emission) and core loadings of 0.2-1% wt.

[3] = Nanoparticle solution stability (milliQ H2O, PBS pH7.4, LB50, 2% bile salts, pH2.0) by DLS; assay type: physicochemical; conditions: 10% wt. Nile Red loading
Procedure: Using a Zetasizer® Nano-ZS (Malvern instruments, Malvern, UK), dynamic light scattering (DLS) size measurements were performed on samples directly after FNP. Samples were diluted with ultra-pure water to avoid multiple scattering and analyzed at 25° C. using a detection angle of 173°. The reported size is the intensity-weighted average diameter as reported by the Malvern deconvolution software in Normal Mode analysis.
Initially, nanoparticle formulations were screened for stability at physiologic conditions (PBS) and conditions relevant to the in vitro model of V. cholera.
Various zein-to-casein ratios were produced to further investigate formulation stability in physiological environments relevant to oral delivery. Zein to casein ratios 4:1, 2:1, and 1:1 FIG. 17 in PBS, pH2.0, LB50 and 2% bile salts were investigated.

SMILES	Log D [1]	log P [1]	also measured
CCCCCCCCCC(=O)[C@@H](O)CC [CAI-1]	4.30		Effect on the growth of cells (V. cholera cultures): no apparent effect; Encapsulation efficiency of CAI-1 during FNP (V. cholerae WN1102): > 98%
NC(=O)CC[C@@H]1NC(=O)[C@H](Cc2ccccc2)NC(=O)[C@H](Cc2ccc(O)cc2)NC(=O)CCSSC[C@@H](C(=O)N2CCC[C@H]2C(=O)N[C@H](CCCN=C(N)N)C(=O)NCC(N)=O)NC(=O)[C@H](CC(N)=O)NC1=O [Desmopressin]	-7.34		
Nc1ccc(O)c(C(=O)O)c1 [Mesalazine]	-1.98	0.46	
CN(C)c1ccc(/N=N/c2ccccc2C(=O)O)cc1 [Methyl Red]	1.46		
CCN(CC)c1ccc2nc3c4ccccc4c(=O)cc-3oc2c1 [Nile Red]	4.46		Encapsulation efficiency of Nile Red [2]: > 98%; NP behaviour after FNP at high dye loading [3]: immediate aggregation of NPs
c1cc2ccc3cccc4ccc(c1)c2c34 [Pyrene]	4.92	5.17	
